{"source": "EPA's ToxValDB 9.5 (doi:10.2903/j.efsa.2015.4020)", "key": {"Aphidius rhopalosiphi": {"test_system": "Aphidius rhopalosiphi", "experiment": "LR50; higher = less toxic", "conditions": "not reported; mortality"}, "Typhlodromus pyri": {"test_system": "Typhlodromus pyri", "experiment": "LR50; higher = less toxic", "conditions": "not reported; mortality"}, "Folsomia candida": {"test_system": "Folsomia candida", "conditions": "chronic/long-term; duration: 28 days"}, "Daphnia magna": {"test_system": "Daphnia magna", "conditions": "chronic/long-term; duration: 21 days; reproduction"}, "Apis mellifera": {"test_system": "Apis mellifera", "conditions": "acute, mortality"}, "Neomysis kadiakensis": {"test_system": "Neomysis kadiakensis", "conditions": "chronic/long-term; duration: 28 days; mortality"}, "Bibionidae": {"test_system": "Bibionidae", "conditions": "chronic/long-term; duration: 28 days"}, "Pimephales promelas": {"test_system": "Pimephales promelas", "conditions": "mortality"}, "Rattus norvegicus": {"test_system": "Rattus norvegicus", "conditions": "for NOAEL: body weight"}, "Oryctolagus sp.": {"test_system": "Oryctolagus sp.", "conditions": "reproduction developmental; body weight"}, "Hypoaspis aculeifer": {"test_system": "Hypoaspis aculeifer", "conditions": "chronic/long-term; duration: 28 days"}}, "data": [{"smiles": "O=C1C=C(N(Cc2ccc(Cl)nc2)CC(F)F)CO1", "note": "[Flupyradifurone]", "values": [{"measurement": "LR50", "setting": "Aphidius rhopalosiphi", "value": "< 0.5", "unit": "g/ha"}, {"measurement": "LR50", "setting": "Typhlodromus pyri", "value": 17, "unit": "g/ha"}, {"measurement": "NOEC", "setting": "Folsomia candida", "value": 1.44, "unit": "mg/kg"}, {"measurement": "NOEC", "setting": "Daphnia magna", "value": 3.2, "unit": "mg/L"}, {"measurement": "LD50", "setting": "Apis mellifera; dermal", "value": 123, "unit": "µg/piece"}, {"measurement": "LD50", "setting": "Apis mellifera; oral, unspecified", "value": 1.2, "unit": "µg/piece"}, {"measurement": "NOEC", "setting": "Neomysis kadiakensis", "value": 0.0132, "unit": "mg/L"}, {"measurement": "NOEC", "setting": "Bibionidae", "value": 0.00681, "unit": "mg/L"}, {"measurement": "LC50", "setting": "Pimephales promelas; acute, duration: 96 hours", "value": "> 70.5", "unit": "µg/mL"}, {"measurement": "NOEC", "setting": "Pimephales promelas; chronic/long-term, duration: 35 days", "value": 4.41, "unit": "mg/L"}, {"measurement": "LD50", "setting": "Rattus norvegicus; acute, mortality", "value": 1610, "unit": "mg/kg-day"}, {"measurement": "NOAEL", "setting": "Rattus norvegicus; chronic", "value": 6.4, "unit": "mg/kg-day"}, {"measurement": "NOAEL", "setting": "Rattus norvegicus; reproduction developmental", "value": 6.4, "unit": "mg/kg-day"}, {"measurement": "LC50", "setting": "Tagia sp.; acute, duration: 14 days, mortality", "value": 186, "unit": "mg/kg"}, {"measurement": "NOEC", "setting": "Tagia sp.; chronic/long-term, duration: 56 days", "value": 1.5, "unit": "mg/kg"}, {"measurement": "LC50", "setting": "Colinus virginianus; acute, oral, diet, mortality", "value": "> 470", "unit": "mg/kg-day"}, {"measurement": "LD50", "setting": "Colinus virginianus; acute, oral, mortality", "value": 232, "unit": "mg/kg-day"}, {"measurement": "NOAEL", "setting": "Colinus virginianus; reproduction developmental", "value": 14, "unit": "mg/kg-day"}, {"measurement": "NOAEL", "setting": "Oryctolagus sp.", "value": 15, "unit": "mg/kg-day"}, {"measurement": "NOEC", "setting": "Hypoaspis aculeifer", "value": 170, "unit": "mg/kg"}]}]}
